Source: patent US20100081690A1, “OXAZOLE DERIVATIVES AS POSITIVE ALLOSTERIC MODULATORS OF METABOTROPIC GLUTAMATE RECEPTORS” (ADDEX PHARMA SA, priority 2006, published 2010)
pEC50: −log10 of the molar value.

Legend:
[1] = biological target: T1, mGluR5 (Rattus norvegicus, UniProt P31424); test: mGluR5 assay on rat cultured cortical astrocytes (Ca2+ mobilization, FLIPR); format: cell-based; settings: in the presence of 300 nM glutamate
T1 construct: positive allosteric modulators of mGluR5 receptors in native preparations; endogenous in cells; host or cells: primary cortical astrocytes from Sprague-Dawley rat embryos (E16-19)
T1 sequence (P31424 21-1203): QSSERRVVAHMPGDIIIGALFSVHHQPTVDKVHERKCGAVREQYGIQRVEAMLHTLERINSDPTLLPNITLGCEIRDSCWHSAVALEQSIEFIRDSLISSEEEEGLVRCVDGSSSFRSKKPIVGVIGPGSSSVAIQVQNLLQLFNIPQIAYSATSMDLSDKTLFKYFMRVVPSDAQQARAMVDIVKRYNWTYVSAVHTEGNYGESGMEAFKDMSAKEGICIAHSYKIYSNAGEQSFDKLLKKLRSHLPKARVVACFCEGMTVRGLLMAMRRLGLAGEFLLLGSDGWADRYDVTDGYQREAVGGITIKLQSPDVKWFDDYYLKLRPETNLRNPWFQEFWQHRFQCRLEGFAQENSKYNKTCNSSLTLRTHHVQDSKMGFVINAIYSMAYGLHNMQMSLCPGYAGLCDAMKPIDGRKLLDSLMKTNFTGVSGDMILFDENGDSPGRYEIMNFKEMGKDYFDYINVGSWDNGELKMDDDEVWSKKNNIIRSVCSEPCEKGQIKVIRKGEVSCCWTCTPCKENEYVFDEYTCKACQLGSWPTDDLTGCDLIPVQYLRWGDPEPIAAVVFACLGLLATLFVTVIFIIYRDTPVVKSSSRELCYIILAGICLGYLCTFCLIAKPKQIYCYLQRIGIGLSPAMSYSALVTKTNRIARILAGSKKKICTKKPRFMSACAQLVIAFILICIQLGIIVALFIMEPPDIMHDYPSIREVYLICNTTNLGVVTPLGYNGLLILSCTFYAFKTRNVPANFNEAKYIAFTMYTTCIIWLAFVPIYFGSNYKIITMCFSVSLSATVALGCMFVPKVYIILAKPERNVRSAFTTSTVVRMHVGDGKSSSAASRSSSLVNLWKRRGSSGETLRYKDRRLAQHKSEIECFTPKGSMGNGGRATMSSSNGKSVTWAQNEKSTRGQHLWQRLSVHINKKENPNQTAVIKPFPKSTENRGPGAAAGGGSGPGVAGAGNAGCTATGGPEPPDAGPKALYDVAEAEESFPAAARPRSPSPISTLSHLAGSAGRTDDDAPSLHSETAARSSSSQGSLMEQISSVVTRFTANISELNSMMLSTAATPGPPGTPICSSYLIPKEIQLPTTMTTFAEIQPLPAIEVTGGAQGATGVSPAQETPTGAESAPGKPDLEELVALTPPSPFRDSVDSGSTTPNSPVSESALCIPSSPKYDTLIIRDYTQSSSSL
Text: Under exposure to growth factors (basic fibroblast growth factor, epidermal growth factor), rat cultured astrocytes express group I-Gq coupled mGluR transcripts, namely mGluR5, but none of the splice variants of mGluR1, and as a consequence, a functional expression of mGluR5 receptors (Miller et al. (1995) J. Neurosci. 15:6103-9): The stimulation of mGluR5 receptors with selective agonist CHPG and the full blockade of the glutamate-induced phosphoinositide (PI) hydrolysis and subsequent intracellular calcium mobilization with specific antagonist as MPEP confirm the unique expression of mGluR5 receptors in this preparation. […]
After one day of incubation, cells were washed with assay buffer containing: 142 mM NaCl, 6 mM KCl, 1 mM Mg2SO4, 1 mM CaCl2, 20 mM HEPES, 1 g/L glucose, 0.125 mM sulfinpyrazone, pH 7.4. […] The plates were then transferred to a Fluorometric Imaging Plate Reader (FLIPR, Molecular Devices, Sunnyvale, Calif.) for the assessment of intracellular calcium flux. After monitoring the baseline fluorescence for 10 s, a solution containing […] of representative compound of the present invention diluted in Assay Buffer (15 μl of 4× dilutions) was added to the cell plate in the absence or in the presence of 300 nM of glutamate. […] In each experiment, fluorescence was then monitored as a function of time for 3 minutes and the data analyzed using Microsoft Excel and GraphPad Prism. […]

[2] = biological target: T2, rat mGluR5 (Rattus norvegicus, UniProt P31424); test: mGluR5 assay on HEK-expressing rat mGluR5 (fluorescent cell based Ca2+ mobilization); settings: HEK-293 cells stably expressing rat mGluR5, no co-addition of glutamate; mean of at least three independent experiments in duplicate; read-out: Ca2+ Flux (mean EC50)
T2 construct: expressed in transfected cells
T2 sequence (P31424 21-1171 isoform P31424-2 limits assumed): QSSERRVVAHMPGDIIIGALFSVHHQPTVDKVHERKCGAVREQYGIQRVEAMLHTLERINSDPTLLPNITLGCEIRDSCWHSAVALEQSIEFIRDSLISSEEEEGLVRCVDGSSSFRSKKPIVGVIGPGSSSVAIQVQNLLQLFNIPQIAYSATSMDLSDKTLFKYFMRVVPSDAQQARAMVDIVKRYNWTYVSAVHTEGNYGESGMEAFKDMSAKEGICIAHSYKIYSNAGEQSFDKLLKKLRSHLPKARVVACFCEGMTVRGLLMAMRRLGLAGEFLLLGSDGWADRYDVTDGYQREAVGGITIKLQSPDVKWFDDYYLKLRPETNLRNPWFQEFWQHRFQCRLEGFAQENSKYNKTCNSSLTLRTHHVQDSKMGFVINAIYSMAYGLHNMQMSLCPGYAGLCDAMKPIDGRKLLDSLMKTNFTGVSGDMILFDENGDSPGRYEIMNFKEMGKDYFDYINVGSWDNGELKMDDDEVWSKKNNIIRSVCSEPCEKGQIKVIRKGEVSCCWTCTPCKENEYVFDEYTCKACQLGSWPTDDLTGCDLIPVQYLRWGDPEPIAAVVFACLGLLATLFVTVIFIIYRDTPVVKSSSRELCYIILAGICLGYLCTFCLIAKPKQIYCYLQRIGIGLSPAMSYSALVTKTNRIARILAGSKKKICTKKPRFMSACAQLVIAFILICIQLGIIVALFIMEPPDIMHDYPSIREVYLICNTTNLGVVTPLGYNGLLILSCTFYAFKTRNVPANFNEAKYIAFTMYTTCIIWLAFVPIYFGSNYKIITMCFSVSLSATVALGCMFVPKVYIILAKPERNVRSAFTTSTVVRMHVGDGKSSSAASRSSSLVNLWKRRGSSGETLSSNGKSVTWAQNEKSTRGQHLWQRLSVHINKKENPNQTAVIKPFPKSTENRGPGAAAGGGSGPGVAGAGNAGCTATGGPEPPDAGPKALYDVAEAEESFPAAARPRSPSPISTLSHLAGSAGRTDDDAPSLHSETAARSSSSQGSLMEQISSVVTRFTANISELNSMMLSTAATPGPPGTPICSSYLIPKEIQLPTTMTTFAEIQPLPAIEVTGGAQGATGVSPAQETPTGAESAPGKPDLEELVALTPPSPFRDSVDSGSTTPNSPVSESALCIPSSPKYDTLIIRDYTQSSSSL
Protocol: Positive functional expression of HEK-293 cells stably expressing rat mGluR5 receptor was determined by measuring intracellular Ca^2+ changes using a Fluorometric Imaging Plate Reader (FLIPR, Molecular Devices, Sunnyvale, Calif.) in response to glutamate or selective known mGluR5 agonists and antagonists. Rat mGluR5RT-PCR products in HEK-293 cells were sequenced and found 100% identical to rat mGluR5Genbank reference sequence (NM_017012). HEK-293 cells expressing rmGluR5 were maintained in media containing DMEM, dialyzed Fetal Bovine Serum (10%), Glutamax™ (2 mM), Penicillin (100 units/ml), Streptomycin (100 μg/ml), Geneticin (100 μg/ml) and Hygromycin-B (40 μg/ml) at 37° C./5% CO2.
After one day of incubation, cells were washed with assay buffer containing: 142 mM NaCl, 6 mM KCl, 1 mM […], 1 mM CaCl2, 20 mM HEPES, 1 g/L glucose, 0.125 mM sulfinpyrazone, pH 7.4. After 60 min of loading with 4 uM Fluo-4 (TefLabs, Austin, Tex.), the cells were washed three times with 50 μl of PBS Buffer and resuspended in 45 μl of assay Buffer. The plates were then transferred to a Fluorometric Imaging Plate Reader (FLIPR, Molecular Devices, Sunnyvale, Calif.) for the assessment of intracellular calcium flux. After monitoring the baseline fluorescence for 10 seconds, increasing concentrations of representative compound (from 0.01 to 60 μM) of the present invention diluted in Assay Buffer (15 μl of 4× dilutions) was added to the cell. The final DMSO concentration in the assay was 0.3%. In each experiment, fluorescence was then monitored as a function of time for 3 minutes and the data analyzed using Microsoft Excel and GraphPad Prism. Each data point was also measured two times.
Under these experimental conditions, this HEK-rat mGluR5 cell line is able to directly detect positive allosteric modulators without the need of co-addition of glutamate or mGluR5 agonist.
The concentration-response curves of representative compounds of the present invention were generated using the Prism GraphPad software (Graph Pad Inc, San Diego, USA). The curves were fitted to a four-parameter logistic equation:
(Y=Bottom+(Top-Bottom)/(1+10̂((Log EC50−X)*Hill Slope)
allowing determination of EC50 values.
The Table 1 below represents the mean EC50 obtained from at least three independent experiments of selected molecules performed in duplicate.

pEC50 [1]: > 6.00 | pEC50 [2]: > 6.00 | melting point: 136 °C
Compound: O=C(c1ccc(F)cc1)N1CCC[C@H](c2nc(-c3cc(F)c[nH]3)co2)C1 [Example 1, (4-Fluoro-phenyl)-{(S)-3-[4-(4-fluoro-1H-pyrrol-2-yl)-oxazol-2-yl]-piperidin-1-yl}-methanone]
